Measured values from US20100129790A1, “Method for Determining Phospholipidosis” (TAKEDA PHARMACEUTICAL LIMITED, priority 2005, published 2010).
Like-named read-outs stand apart in the source and are kept apart here.

Columns and labels:
[1] = tested on: blood; experiment: GeneChip analysis of blood (Rat Expression Array 230A), 3-day administration; assay type: in vivo; conditions: rat blood 24 hr after 3 consecutive days of oral administration, pooled, 3 rats per group; dose per compound in table
Method: At 24 hr after completion of the oral administration for 3 consecutive days in Example 1, the blood was collected from the compound administration group and the control (non-administration) group (3 rats per group), which was pooled and subjected to GeneChip analysis.
(§1) After collection using PAXgene Blood RNA Tube (PreAnalytiX), the blood was stood for 2 hr or more, and cryopreserved at −80° C. Total RNA was extracted using a PAXgene Blood RNA Kit (PreAnalytiX). A sample for GeneChip analysis was prepared and analyzed according to the protocol provided by Affymetrix Inc. cDNA synthesis reaction was carried out using a SuperScript Choice system (Invitrogen), then biotin-labeled cRNA synthesis reaction was carried out using Enzo BioArray HighYield RNA Transcript Labeling Kit (Affymetrix), after which cRNA was fragmented and a labeled sample was prepared. The labeled sample was hybridized to Rat Expression Array 230A (RAE230A, Affymetrix), the array was stained, washed and scanned by GeneChip system (Affymetrix), and the following three image data were obtained from one sheet of array.
1. data of staining by a method omitting fluorescence amplification reaction by antibody 2. data of staining by the method described in a manual for once performing fluorescence amplification reaction by antibody 3. data of staining by a method for twice performing fluorescence amplification reaction by antibody
(§2) From the image data, measurement value (Signal), numerical data such as Signal Log Ratio and the like and determination data such as Detection, Change and the like were obtained using MicroarraySuite5.0 (parameter: Default value). Fold Change was calculated from Signal Log Ratio of the image data 2 using the conversion equation of Fold Change=2^Signal Log Ratio.
(§3) (*In GeneChip analysis using RAE230A, 11 sites per one measurement target sequence are measured, and the measurement results at 11 sites are combined to give one numerical value and determination data. RAE230A contains 15924 combinations of 11 site measurement sets, and each measurement set is referred to as a probe set.)
(§4) A probe set wherein two or more of the above-mentioned three image data satisfy the following three conditions was taken as a variation probe set.
(§5) 1. A probe set judged as Increase or Decrease by MicroarraySuite5.0 2. A probe set whose higher measurement value (Signal) was judged as Presence by MicroarraySuite5.0 3.

[2] = tested on: Crj:CD(SD)IGS rats; conditions: rat, in vivo
Method: After completion of the administration, in all animals, livers, kidneys, spleens, lungs and mesenteric lymph nodes were sampled, these sampled tissues were examined for histopathological changes by conventional methods of optical microscopy and electron microscopy. In addition, a blood smear sample (Giemsa stain sample) was prepared, and the vacuolated lymphocyte ratio of the peripheral blood was measured with observation under a microscope.

[3] = tested on: blood; experiment: GeneChip analysis of blood (Rat Expression Array 230A), 7-day administration; assay type: in vivo; conditions: rat blood 24 hr after 7 consecutive days of oral administration, pooled, 4 rats per group; dose per compound in table
Method: as §1, §2, §3, §4, §5
At 24 hr after completion of the oral administration for 7 consecutive days in Example 3, the blood was collected from the compound administration group and the control (non-administration) group (4 rats per group), which was pooled and subjected to GeneChip analysis in the same manner as in Example 2.

[4] = tested on: Crj:CD(SD)IGS rats; conditions: rat, in vivo; remark: listed apart in the source

For CCCCc1oc2ccccc2c1C(=O)c1cc(I)c(OCCN(CC)CC)c(I)c1 [Amiodarone, amiodarone], which “Number of expression variation probe sets, Decreased expression” value (shortened to “Number … Decreased expression”) [1] is on record?
Its value is 282.

What about the “Number of expression variation probe sets, Increased expression” value (from here on “Number … Increased expression”) [1] of the same molecule?
Its value is 613.

What about the “Histopathological findings (PLsis) Kidney” value [2] of the same molecule?
The value was “−”.

What about the “Histopathological findings (PLsis) Liver” value [2] of the same molecule?
Its value is “−”.

And the “Histopathological findings (PLsis) Lung” value [2]?
Its value is “++”.

And the “Histopathological findings (PLsis) Lymph node” value [2]?
The value was “++”.

And the “Histopathological findings (PLsis) Spleen” value [2]?
Its value is “−”.

What about the “Number … Decreased expression” value [3] of the same molecule?
Its value is 457.

And the “Number … Increased expression” value [3]?
The value was 515.

And the “Histopathological findings (PLsis) Liver” value [4]?
The value was “−”.

What about the “Histopathological findings (PLsis) Lung” value [4] of the same molecule?
Its value is “+”.

What about the “Histopathological findings (PLsis) Lymph node” value [4] of the same molecule?
The value was “+”.

And the “Histopathological findings (PLsis) Others” value [4]?
Its value is “−”.

What about the “Histopathological findings (PLsis) Spleen” value [4] of the same molecule?
Its value is “+”.

For CCN(CC)CCCC(C)Nc1ccnc2cc(Cl)ccc12 (stereo not drawn) [Chloroquine, chloroquine], which “Number … Decreased expression” value [1] is on record?
The value was 318.

And the “Number … Increased expression” value [1]?
Its value is 382.

And the “Histopathological findings (PLsis) Kidney” value [2]?
Its value is “−”.

And the “Histopathological findings (PLsis) Liver” value [2]?
The value was “+”.

And the “Histopathological findings (PLsis) Lung” value [2]?
The value was “−”.

And the “Histopathological findings (PLsis) Lymph node” value [2]?
Its value is “−”.

What about the “Histopathological findings (PLsis) Spleen” value [2] of the same molecule?
The value was “+”.

And the “Number … Decreased expression” value [3]?
The value was 179.

What about the “Number … Increased expression” value [3] of the same molecule?
The value was 310.

What about the “Histopathological findings (PLsis) Liver” value [4] of the same molecule?
The value was “−”.

What about the “Histopathological findings (PLsis) Lung” value [4] of the same molecule?
The value was “−”.

And the “Histopathological findings (PLsis) Lymph node” value [4]?
The value was “+”.

And the “Histopathological findings (PLsis) Others” value [4]?
Its value is “−”.

And the “Histopathological findings (PLsis) Spleen” value [4]?
Its value is “+”.

Which “Number … Decreased expression” value [1] does the source give for CNCCC(Oc1ccc(C(F)(F)F)cc1)c1ccccc1 (stereo not drawn) [Fluoxetine, fluoxetine] here?
The value was 391.

What about the “Number … Increased expression” value [1] of the same molecule?
The value was 372.

What about the “Histopathological findings (PLsis) Liver” value [4] of the same molecule?
Its value is “+”.

And the “Histopathological findings (PLsis) Lung” value [4]?
Its value is “+”.

And the “Histopathological findings (PLsis) Lymph node” value [4]?
The value was “+”.

And the “Histopathological findings (PLsis) Others” value [4]?
Its value is “brain”.

What about the “Histopathological findings (PLsis) Spleen” value [4] of the same molecule?
Its value is “−”.

CN(C)CCCN1c2ccccc2CCc2ccccc21 [Imipramine, imipramine] was tested. Which “Histopathological findings (PLsis) Kidney” value [2] did it give?
Its value is “−”.

What about the “Histopathological findings (PLsis) Liver” value [2] of the same molecule?
The value was “++”.

And the “Histopathological findings (PLsis) Lung” value [2]?
The value was “+”.

And the “Histopathological findings (PLsis) Lymph node” value [2]?
Its value is “−”.

What about the “Histopathological findings (PLsis) Spleen” value [2] of the same molecule?
Its value is “−”.

And the “Number … Decreased expression” value [3]?
Its value is 320.

And the “Number … Increased expression” value [3]?
The value was 123.

For C1CCC(C(CC2CCCCN2)C2CCCCC2)CC1 (stereo not drawn) [Perhexiline, perhexiline], which “Number … Decreased expression” value [1] is on record?
Its value is 179.

What about the “Number … Increased expression” value [1] of the same molecule?
Its value is 310.

What about the “Histopathological findings (PLsis) Kidney” value [2] of the same molecule?
Its value is “−”.

And the “Histopathological findings (PLsis) Liver” value [2]?
Its value is “−”.

What about the “Histopathological findings (PLsis) Lung” value [2] of the same molecule?
Its value is “+”.

What about the “Histopathological findings (PLsis) Lymph node” value [2] of the same molecule?
The value was “+”.

And the “Histopathological findings (PLsis) Spleen” value [2]?
The value was “−”.

And the “Number … Decreased expression” value [3]?
The value was 83.

And the “Number … Increased expression” value [3]?
The value was 49.

And the “Histopathological findings (PLsis) Liver” value [4]?
Its value is “−”.

What about the “Histopathological findings (PLsis) Lung” value [4] of the same molecule?
Its value is “+”.

And the “Histopathological findings (PLsis) Lymph node” value [4]?
Its value is “+”.

What about the “Histopathological findings (PLsis) Others” value [4] of the same molecule?
Its value is “−”.

What about the “Histopathological findings (PLsis) Spleen” value [4] of the same molecule?
Its value is “+”.

With CCN(CC)CCCC(C)Nc1c2ccc(Cl)cc2nc2ccc(OC)cc12 (stereo not drawn) [Quinacrine, quinacrine] as the molecule, how does the “Number … Decreased expression” value [1] read?
The value was 392.

What about the “Number … Increased expression” value [1] of the same molecule?
The value was 240.

What about the “Histopathological findings (PLsis) Kidney” value [2] of the same molecule?
The value was “+”.

And the “Histopathological findings (PLsis) Liver” value [2]?
The value was “++”.

And the “Histopathological findings (PLsis) Lung” value [2]?
Its value is “+”.

What about the “Histopathological findings (PLsis) Lymph node” value [2] of the same molecule?
The value was “−”.

And the “Histopathological findings (PLsis) Spleen” value [2]?
Its value is “+”.

And the “Number … Decreased expression” value [3]?
The value was 103.

And the “Number … Increased expression” value [3]?
Its value is 258.

And the “Histopathological findings (PLsis) Liver” value [4]?
Its value is “+”.

What about the “Histopathological findings (PLsis) Lung” value [4] of the same molecule?
Its value is “+”.

What about the “Histopathological findings (PLsis) Lymph node” value [4] of the same molecule?
The value was “+”.

And the “Histopathological findings (PLsis) Others” value [4]?
The value was “−”.

What about the “Histopathological findings (PLsis) Spleen” value [4] of the same molecule?
Its value is “−”.

What does the source list for CC/C(=C(\c1ccccc1)c1ccc(OCCN(C)C)cc1)c1ccccc1 [Tamoxifen, tamoxifen]?
Number of expression variation probe sets, Decreased expression [1]: 94; Number of expression variation probe sets, Increased expression [1]: 258; Histopathological findings (PLsis) Kidney [2]: −; Histopathological findings (PLsis) Liver [2]: −; Histopathological findings (PLsis) Lung [2]: +; Histopathological findings (PLsis) Lymph node [2]: ++; Histopathological findings (PLsis) Spleen [2]: −; Number of expression variation probe sets, Decreased expression [3]: 368; Number of expression variation probe sets, Increased expression [3]: 546; Histopathological findings (PLsis) Liver [4]: +; Histopathological findings (PLsis) Lung [4]: +; Histopathological findings (PLsis) Lymph node [4]: +; Histopathological findings (PLsis) Others [4]: −; Histopathological findings (PLsis) Spleen [4]: −
